Source: patent US20160244486A1, “AB Modulating Peptides” (ALZHYME PTY LTD, priority 2013, published 2016)
Square brackets hold non-standard residues; d marks the D form. Ends that are not written are not given here. Peptide text beside a SMILES is read from it. ξ: configuration not given here. ξT = CC(O)C(N)C(=O)O

How the values were obtained:
[1] = In vitro peptide stability in 10% rat brain homogenate, RP-HPLC quantification; type: in vitro ADME; conditions: 37° C.
Method: Peptides were prepared as a 1 mM solution in phosphate-buffered saline. 20 μl of the peptide solution was diluted in 10% rat brain homogenate (in 1× phosphate-buffered saline and 0.5% Triton X-100).
The solution was incubated at 37° C. for different times, and the reaction was stopped by adding the Complete mixture of protease inhibitors (Roche Molecular Biochemicals, Mannheim, Germany). For ANA5 and RI-ANA5, the bulk of the brain proteins (but not the peptides) were precipitated in cold methanol (1:4 (v/v) mixture/MeOH) for 1 hr at −20° C. The precipitated proteins were pelleted by centrifugation at 10,000 g for 10 min at 4° C. The supernatant containing the peptide was concentrated five times under vacuum and separated by RP-HPLC. Due to recovery issues with the longer ANA1 and RI-ANA1 peptides, samples were instead lyophilized and then reconstituted in a TFA solution, prior to separation by RP-HPLC.
The area of the peak (UV absorbance at 205 nm) corresponding to the intact peptide was measured and compared with an equivalent sample incubated in phosphate-buffered saline.
(iii) In vitro assay of peptide stability—Peptides were prepared as a 1 mM solution in PBS. 20 μl of the peptide solution was diluted in 10% rat brain homogenate (in PBS+0.5% Triton X-100). The solution was incubated at 37° C. for different times, and the reaction was stopped by adding the Complete mixture of protease inhibitors (Roche Molecular Biochemicals, Mannheim, Germany). For ANA5 and 9M S.A., the bulk of the brain proteins (but not the peptides) were precipitated in cold methanol (1:4 (v/v) mixture/methanol) for 1 h at −20° C. The precipitated proteins were pelleted by centrifugation (10.000 g, 10 min, 4° C.). The supernatant containing the peptide was concentrated five times under vacuum and separated by reversed-phase HPLC (RP-HPLC). Due to recovery issues with the longer ANA1 and RI-ANA1 peptides, samples were instead lyophilized, extracted in TFA, centrifuged to remove insoluble material and separated by RP-HPLC. The area of the peak (UV absorbance at 205 nm) corresponding to the intact peptide was measured and compared with an equivalent sample incubated in PBS.
Peptides were prepared as 1 mM solutions in PBS and diluted in 10% rat brain homogenate. Solutions were incubated at 37° C. for different times, and the reactions were stopped by addition of protease inhibitors. Samples were processed as described herein in the General Materials/Methods, separated by RP-HPLC and the level of intact peptide was determined at each time point.

[2] = molecular target: oligomeric Aβ42 (human synthetic Aβ42, pre-formed oligomers) (human) (UniProt P05067); assay: SPR (Biacore 3000), 15M S.A. immobilised on CM5, oAβ42 injected; 1:1 binding model with drifting baseline; overall estimate across the oligomer mixture
Chain of UniProt P05067 (P05067 672-713 limits assumed): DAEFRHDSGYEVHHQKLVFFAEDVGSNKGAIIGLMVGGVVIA

amyloid plaques = assay: Ex vivo staining of amyloid plaques in brain tissue sections; conditions: brain tissue from 8 month old 5× FAD AD model mice
Method: (x) Immunohistochemistry—Brains were obtained from 8 month old 5× FAD AD model mice Oakley, F-F et al (2006) or age-matched non-transgenic controls and post-fixed and embedded in the freezing medium as described in Drummond, E. S. et al (2013). Serial sagittal cryosections were cut at a thickness of 10 μm. Positive control staining for amyloid was performed using Thioflavin S (ThioS) as described in Youmans, K. L, et al (2012). After the removal of the freezing medium by serial changes of TBS pH 7.4, the slide was incubated for 1 h at room temperature in blocking buffer (10% goat serum in TBS). The slides were then stained with 1 μM TMR-labelled 15M S.A. peptide in 2% goat-serum-PBS for 2 hours at room temperature. Excess unbound peptide was removed prior to mounting by extensive washing with TBS. The coverslip was mounted using Prolong Gold mounting media (Life Technologies).
We investigated whether TMR-labelled 15M S.A. could be used to stain amyloid plaques ex vivo using brain tissue sections from AD model mice, in comparison with Thioflavin S (Thio S), which binds mature amyloid deposits and readily detects these plaques.

Row | Compound | intact peptide amount ([1]; time 0 min) [µg] | intact peptide amount ([1]; time 15 min) [µg] | intact peptide amount ([1]; time 30 min) [µg] | intact peptide amount ([1]; time 300 min) [µg] | further results
1 | CSCC[C@@H](NC(=O)[C@@H](CC(C)C)NC(=O)[C@@H](CCCCN)NC(=O)[C@H](N)CCCNC(=N)N)C(=O)N[C@H](CCC(N)=O)C(=O)N1CCC[C@@H]1C(=O)NC(C(=O)N[C@H](CCCNC(=N)N)C(=O)N[C@H](CC(N)=O)C(=O)N[C@H](CCCNC(=N)N)C(=O)N[C@H](CCCNC(=N)N)C(=O)N[C@H](CC(N)=O)C(=O)N1CCC[C@@H]1C(=O)N[C@H](CC(N)=O)C(=O)NC(C(=O)O)C(C)O)C(C)O (stereo partly drawn) [RI-ANA1, Arg-Lys-Leu-Met-Gln-Pro-Thr-Arg-Asn-Arg-Arg-Asn-Pro-Asn-Thr] (H-[dR][dK][dL][dM][dQ][dP][ξT][dR][dN][dR][dR][dN][dP][dN][ξT]-OH; N-terminus and C-terminus assumed) | 29.8 | 27.8 | 29.4 | 33.5 | intact peptide amount ([1]; time 0 min, listed as 15M S.A.): 29.80 µg; intact peptide amount ([1]; time 15 min, listed as 15M S.A.): 27.80 µg; intact peptide amount ([1]; time 30 min, listed as 15M S.A.): 29.40 µg; intact peptide amount ([1]; time 300 min, listed as 15M S.A.): 33.50 µg
2 | CSCC[C@@H](NC(=O)[C@@H](CC(C)C)NC(=O)[C@@H](CCCCN)NC(=O)[C@H](N)CCCNC(=N)N)C(=O)N[C@H](CCC(N)=O)C(=O)N1CCC[C@@H]1C(=O)N[C@@H](C(=O)N[C@H](CCCNC(=N)N)C(=O)N[C@H](CC(N)=O)C(=O)O)[C@H](C)O [RI-ANA5, Arg-Lys-Leu-Met-Gln-Pro-Thr-Arg-Asn] | 14 | 12.35 | 12.35 | 12.5 | intact peptide amount ([1]; time 0 min, listed as 9M S.A.): 14.11 µg; intact peptide amount ([1]; time 300 min, listed as 9M S.A.): 12.51 µg
3 | NRTPQMLKR [ANA5, Asn-Arg-Thr-Pro-Gln-Met-Leu-Lys-Arg] | 12 | 0.47 | 0 | 0 | intact peptide amount ([1]; time 0 min, listed as 9mer): 12.00 µg; intact peptide amount ([1]; time 30 min, listed as 9 mer): none; intact peptide amount ([1]; time 30 min, listed as 9mer): 0 µg
4 | RI-ANA1 (Arg-Lys-Leu-Met-Gln-Pro-Thr-Arg-Asn-Arg-Arg-Asn-Pro-Asn-Thr, all D-amino acids) (peptide) | – | – | – | – | Kd [2]: 11 µM
5 | TNPNRRNRTPQMLKR [ANA1, Thr-Asn-Pro-Asn-Arg-Arg-Asn-Arg-Thr-Pro-Gln-Met-Leu-Lys-Arg] | 25.8 | 5.6 | 0.03 | 0.02 | intact peptide amount ([1]; time 0 min, listed as 15mer): 25.78 µg; intact peptide amount ([1]; time 15 min, listed as 15mer): 5.55 µg; intact peptide amount ([1]; time 30 min, listed as 15 mer): trace amounts; intact peptide amount ([1]; time 30 min, listed as 15mer): 0.03 µg
6 | Thioflavin S [Thio S] | – | – | – | – | staining of amyloid deposits (amyloid plaques): extensive plaques
